# Test results from patent publication US20240228506A1, “RIPK1 INHIBITORS AND METHODS OF USE” (Merck Sharp & Dohme LLC, priority 2021, published 2024).
# Target: T1, GST-RIPK1 (recombinant GST-RIPK1 kinase domain (residues 1-327)) (Homo sapiens, UniProt Q13546)
# T1 construct: recombinant GST-RIPK1 kinase domain (residues 1-327) enzyme; made in house; host or cells: baculovirus-transfected Sf21 insect cells
# T1 sequence (Q13546 1-327): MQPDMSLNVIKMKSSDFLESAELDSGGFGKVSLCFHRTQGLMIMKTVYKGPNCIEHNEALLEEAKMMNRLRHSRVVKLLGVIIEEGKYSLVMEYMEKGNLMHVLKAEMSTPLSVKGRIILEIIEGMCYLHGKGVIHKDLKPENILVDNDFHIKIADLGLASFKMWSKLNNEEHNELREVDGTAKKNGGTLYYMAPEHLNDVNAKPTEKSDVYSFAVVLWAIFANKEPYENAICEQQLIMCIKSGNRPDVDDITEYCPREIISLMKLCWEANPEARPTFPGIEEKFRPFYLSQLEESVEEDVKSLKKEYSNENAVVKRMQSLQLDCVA
# Experiment: RIPK1-ADP-Glo enzymatic assay
# Type: biochemical
# Details: 25 nM GST-RIPK1, 300 μM ATP, 3 μM dephosphorylated-MBP; 30 minutes pre-incubation, 150 minutes reaction; ten-point titration
# Outline: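 Ten-point 1:3 titrations from 100000 nM, 1% DMSO, were preincubated 30 min with 25 nM GST-RIPK1 (1-327) before starting with 300 μM ATP plus 3 μM dephosphorylated MBP; 150 min reaction. ADP-Glo luminescence measured ATP-to-ADP conversion; EC50 by four-parameter sigmoidal regression.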
row,Structure (SMILES),IC50 [µM]
1,"O=C(N1C[C@@H]2C[C@H]1c1cncc(C#Cc3cncnc3)c1O2)C12CCC(C(F)(F)F)(CC1)C2 [Compound 2-50, ((2S,5S)-9-(Pyrimidin-5-ylethynyl)-2,3-dihydro-2,5-methanopyrido[3,4-f][1,4]oxazepin-4(5H)-yl)(4-(trifluoromethyl)bicyclo[2.2.1]heptan-1-yl)methanone]",0.015
2,"CC(C)(CC#N)C(=O)N1C[C@@H]2C[C@H]1c1cncc(C#N)c1O2 [Compound 1-20, (2S,5S)-4-(3-cyano-2,2-dimethylpropanoyl)-2,3,4,5-tetrahydro-2,5-methanopyrido[3,4-f][1,4]oxazepine-9-carbonitrile]",0.089
3,"O=C(N1C[C@@H]2C[C@H]1c1cncc(C#Cc3cccnc3)c1O2)C12CCC(F)(CC1)C2 [Compound 2-101, (4-fluorobicyclo[2.2.1]heptan-1-yl)((2S,5S)-9-(pyridin-3-ylethynyl)-2,3-dihydro-2,5-methanopyrido[3,4-f][1,4]oxazepin-4(5H)-yl)methanone]",0.012
4,"CC(C)(C)C(=O)N1C[C@@H]2C[C@H]1c1cncc(C#N)c1O2 [Compound 1-3, (2S,5S)-4-(2,2-dimethylpropanoyl)-2,3,4,5-tetrahydro-2,5-methanopyrido[3,4-f][1,4]oxazepine-9-carbonitrile]",0.05
5,"CCC(C#N)(CC)C(=O)N1C[C@@H]2C[C@H]1c1cncc(C#N)c1O2 [Compound 1-21, (2S,5S)-4-(2-cyano-2-ethylbutanoyl)-2,3,4,5-tetrahydro-2,5-methanopyrido[3,4-f][1,4]oxazepine-9-carbonitrile]",0.366

# The remaining lines, values ahead:
row,IC50 [µM],Structure (SMILES)
1,0.048,"CC(C)C12CC(C(=O)N3C[C@@H]4C[C@H]3c3cncc(C#N)c3O4)(C1)C2 [Compound 1-99, (2S,5S)-4-(3-isopropylbicyclo[1.1.1]pentane-1-carbonyl)-2,3,4,5-tetrahydro-2,5-methanopyrido[3,4-f][1,4]oxazepine-9-carbonitrile]"
2,0.06,"N#Cc1cncc2c1O[C@H]1C[C@@H]2N(C(=O)C2(F)CC(Oc3ccc(F)cc3F)C2)C1 (single isomer, unassigned) [Compound 1-106, (2S,5S)-4-(3-(2,4-difluorophenoxy)-1-(R or S)-fluorocyclobutane-1-carbonyl)-2,3,4,5-tetrahydro-2,5-methanopyrido[3,4-f][1,4]oxazepine-9-carbonitrile]"
3,0.005,"N#Cc1cncc2c1O[C@H]1C[C@@H]2N(C(=O)C23CCC(CC2(F)F)C3)C1 (single isomer, unassigned) [Compound 1-48, (2S,5S)-4-[(S or R)-2,2-difluorobicyclo[2.2.1]heptane-1-carbonyl]-2,3,4,5-tetrahydro-2,5-methanopyrido[3,4-f][1,4]oxazepine-9-carbonitrile]"
4,0.076,"COC1(C(=O)N2C[C@@H]3C[C@H]2c2cncc(C#N)c2O3)CCCC1 [Compound 1-65, (2S,5S)-4-(1-methoxycyclopentane-1-carbonyl)-2,3,4,5-tetrahydro-2,5-methanopyrido[3,4-f][1,4]oxazepine-9-carbonitrile]"
5,0.23,"N#Cc1cncc2c1O[C@H]1C[C@@H]2N(C(=O)C2(C(F)F)CCCO2)C1 (stereo partly drawn) [Compound 1-60, (2S,5S)-4-(2-(difluoromethyl)tetrahydro-furan-2-carbonyl)-2,3,4,5-tetrahydro-2,5-methanopyrido[3,4-f][1,4]oxazepine-9-carbonitrile]"
6,0.514,"N#Cc1cncc2c1O[C@H]1C[C@@H]2N(C(=O)C23CC(C(F)(F)F)(CO2)C3)C1 [Compound 1-66, (2S,5S)-4-(4-(trifluoromethyl)-2-oxabicyclo[2.1.1]hexane-1-carbonyl)-2,3,4,5-tetrahydro-2,5-methanopyrido[3,4-f][1,4]oxazepine-9-carbonitrile]"
7,0.446,"CC(C)C1(C(=O)N2C[C@@H]3C[C@H]2c2cncc(C#N)c2O3)CC1 [Compound 1-79, (2S,5S)-4-(1-isopropylcyclopropane-1-carbonyl)-2,3,4,5-tetrahydro-2,5-methanopyrido[3,4-f][1,4]oxazepine-9-carbonitrile]"
